Data: article PMC5358321 (Synapse (New York, N.Y.), 2016)
Values joined by “and” are separate entries in the source; they are usually repeats but may differ in a detail not shown here. Identical values can stand only once. Marks after values point to notes of the source that are not given here.

Assays:
Aβ plaques [1] = target: T1, Aβ plaques (Homo sapiens, UniProt P05067); conditions: AD brain homogenates using ^18F-florbetapir; ref Choi et al., 2009; cited from earlier work
Aβ plaques [2] = experiment: Ki using ^125I-TZDM; format: binding
Aβ plaques [3] = conditions: using ^125I-TZDM; ref Kung et al., 2003; cited from earlier work
Aβ plaques [4] = target: T1, Aβ plaques; experiment: In vitro binding affinity: inhibition of [^3H]PIB binding in human AD brain
Aβ plaques [5] = target: T1, Aβ plaques; experiment: Postmortem human brain; format: binding; conditions: for GM/WM, local hot spots in grey matter: normal control NC2, hippocampus sections 7 μm
[6] = In vivo rat whole body PET/CT, interscapular brown adipose tissue; conditions: for IBAT +ATX uptake / Ratio uptake at 4.5 min/uptake at 85 min, IBAT +ATX: atomoxetine preinjection
[7] = In vivo rat PET/CT, brain uptake; conditions: for maximum (peak) activity levels in the various brain regions: 90 min scan; for time to approach plateau in cerebellum (CB): postinjection
[8] = normal control NC1, hippocampus sections 7 μm
[9] = subject AD1, hippocampus sections 7 μm
[10] = subject AD2, hippocampus sections 7 μm
[11] = 4.5 min post iv injection, baseline
[12] = 4.5 min, atomoxetine preinjection
[13] = 85 min, atomoxetine preinjection

T1 sequence (P05067 672-711 limits assumed): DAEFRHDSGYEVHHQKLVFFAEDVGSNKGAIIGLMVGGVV

Row | SMILES | GM/WM (gray matter to white matter ratio) (Aβ plaques [5]; [8]) | GM/WM, local hot spots in grey matter (Aβ plaques [5]) | GM/WM (gray matter to white matter ratio) (Aβ plaques [5]; [9]) | GM/WM (gray matter to white matter ratio) (Aβ plaques [5]; [10]) | IBAT +ATX uptake ([6]; 4.5 min (initial uptake)) | IBAT Baseline uptake [6, 11] [%Injected dose/cc] | IBAT Baseline uptake ([6]; 85 min (end of scan), baseline) | IBAT +ATX uptake ([6]; 85 min) | Ratio uptake at 4.5 min/uptake at 85 min, IBAT +ATX [6] | Ratio uptake at 4.5 min/uptake at 85 min, IBAT Baseline ([6]; baseline) | Cerebellum +ATX uptake [7, 12] [%injected dose/cc] | Frontal Cortex +ATX uptake [7, 12] [%injected dose/cc] | Brain-stem uptake [7, 11] [%injected dose/cc] | Cerebellum uptake [7, 11] [%injected dose/cc] | Frontal Cortex uptake [7, 11] [%injected dose/cc] | Brain-stem uptake ([7]; 85 min (end of scan), baseline) [%injected dose/cc] | Cerebellum +ATX uptake [7, 13] [%injected dose/cc] | Frontal Cortex +ATX uptake [7, 13] | Cerebellum uptake ([7]; 85 min, baseline) [%injected dose/cc] | Frontal Cortex uptake ([7]; 85 min, baseline) [%injected dose/cc] | further results
1 | CNc1ccc(-c2cc3cc(O)ccc3o2)c(F)n1 [AZD4694] |  |  |  |  |  |  |  |  |  |  |  |  |  |  |  |  |  |  |  |  | Ki (Aβ plaques [1]): 2.3 nM
2 | CNc1ccc(C=Cc2ccc(N(C)C)cc2)cc1 [Dalene, 4-methylamino-4′-N,N-dimethylaminostyrylbenzene] |  |  |  |  |  |  |  |  |  |  |  |  |  |  |  |  |  |  |  |  | Times weaker affinity compared to SB-13 (Aβ plaques [2]; ^125I-TZDM assay, Kung et al., 2003): approximately 5; Binding affinity relative to SB-13 (Aβ plaques [2]; compared to affinity measures of SB-13 in the same assay (^125I-TZDM; Kung et al., 2003)): (0.21) ^i; Ki (Aβ plaques [3]): 15 nM and 15.2 nM
3 | CNc1ccc(N=Nc2ccc(N(C)C)cc2)cc1 [TAZA, 4-methylamino-4′-N,N-dimethylaminoazobenzene] |  |  |  |  |  |  |  |  |  |  |  |  |  |  |  |  |  |  |  |  | Binding affinity Relative to PIB (Aβ plaques [4]): 7.81 ^g
4 | CN(C)c1ccc(C=Cc2ccc(N[11CH3])cc2)cc1 [[^11C]Dalene, ^11C-methylamino-4′-dimethylaminostyrylbenzene] | ~1 | grey matter (~2) | 3.68 | 5.34 | 0.05 %Injected dose/cc and 0.054 %Injected dose/cc | 0.018 | 0.12 %Injected dose/cc and 0.118 %Injected dose/cc | 0.05 %Injected dose/cc | 1.08 | 0.15 | 0.788 | 0.828 | 0.011 | 0.015 | 0.015 | 0.124 | 0.304 | 0.30 %injected dose/cc and 0.304 %injected dose/cc | 0.072 | 0.069 | fold lower GM/WM ratio than [^11C]TAZA (Aβ plaques [5]; AD subjects): approximately 5 fold; Ratio of brainstem to frontal cortex [7, 13]: 1.75; Ratio of cerebellum to frontal cortex [7, 13]: 1.0; Ratio of brainstem to frontal cortex ([7]; 85 min postinjection, baseline): 1.80; Ratio of cerebellum to frontal cortex ([7]; 85 min postinjection, baseline): 1.04; Ratio uptake at 4.5 min/uptake at 85 min, Brain-stem +ATX ([7]; atomoxetine preinjection): 2.12; Ratio uptake at 4.5 min/uptake at 85 min, Cerebellum +ATX ([7]; atomoxetine preinjection): 2.59; Ratio uptake at 4.5 min/uptake at 85 min, Frontal Cortex +ATX ([7]; atomoxetine preinjection): 2.72; Ratio uptake at 4.5 min/uptake at 85 min, Brain-stem ([7]; baseline): 0.09; Ratio uptake at 4.5 min/uptake at 85 min, Cerebellum ([7]; baseline): 0.21; time at which brain uptake plateaued ([7]; baseline): approximately 60 min; maximum (peak) activity levels in the various brain regions ([7]; baseline): approximately 0.1 % injected dose/cc; time to approach plateau in cerebellum (CB) ([7]; baseline): approximately 40 min
5 | [11CH3]Nc1ccc(-c2nc3ccc(O)cc3s2)cc1 [[^11C]PIB] |  |  |  |  |  |  | 0.056 %Injected dose/cc |  |  |  |  |  |  | 0.823 | 0.714 | 0.056 |  |  | 0.124 | 0.045 | 
6 | CN(C)c1ccc(N=Nc2ccc(N[11CH3])cc2)cc1 [[^11C]TAZA, 4-[^11C]methylamino-4′-N,N-dimethylaminoazo-benzene] | ~1 | in grey matter (≥5) | 19.6 | 30.5 | 0.15 %Injected dose/cc and 0.148 %Injected dose/cc | 0.015 | 0.43 %Injected dose/cc and 0.429 %Injected dose/cc | 0.02 %Injected dose/cc and 0.016 %Injected dose/cc | 9 and 9.25 | 0.04 | 0.695 | 0.627 | 0.013 | 0.010 | 0.007 | 0.285 | 0.154 | 0.160 %injected dose/cc | 0.192 | 0.16 | displacement of [^11C]TAZA binding by PIB (Aβ plaques [5]; 10 μM PIB, gray matter of AD1 and AD2 hippocampus): > 90% and > 94%; gray matter to white matter ratios in AD brains (Aβ plaques [5]; AD brains, summary statement): > 20; time at which IBAT activity leveled off / plateau ([6]; baseline): ~90 min; Ratio of brainstem to frontal cortex ([7]; 85 min postinjection, baseline): 1.78; Ratio of cerebellum to frontal cortex ([7]; 85 min postinjection, baseline): 1.20; Ratio uptake at 4.5 min/uptake at 85 min, Brain-stem +ATX ([7]; atomoxetine preinjection): 4.2; Ratio uptake at 4.5 min/uptake at 85 min, Cerebellum +ATX ([7]; atomoxetine preinjection): 4.51; Ratio uptake at 4.5 min/uptake at 85 min, Frontal Cortex +ATX ([7]; atomoxetine preinjection): 3.92; ratio between initial time (4.5 min) and later time (85 min), brain regions ([7]; atomoxetine preinjection, brain regions overall): ~5; Ratio uptake at 4.5 min/uptake at 85 min, Brain-stem ([7]; baseline): 0.05; Ratio uptake at 4.5 min/uptake at 85 min, Cerebellum ([7]; baseline): 0.05; time at which brain uptake plateaued ([7]; baseline): approximately 60 min; maximum (peak) activity levels in the various brain regions ([7]; baseline): approximately 0.3 % injected dose/cc; time to approach plateau in cerebellum (CB) ([7]; baseline): approximately 50 min; reduction of brainstem to frontal cortex ratio by atomoxetine ([7]; end of scan): approximately 10%
